# In patent publication US9988430B2, “Stable GLP-1 based GLP-1/glucagon receptor co-agonists” (Novo Nordisk A/S, priority 2014, dated 2018):
# *1 amine or outer side, *2 acyl side, *3 side chain or, on linkers, in order; H or OH if unused. Where a SMILES comes first, the peptide text is derived from it. Side-chain parts run from the residue outwards. [ ]: non-standard residue; d: D form. The star is where a group is joined. C18 diacid = O=C(O)CCCCCCCCCCCCCCCCC(=O)*; γGlu = O=C(O)[C@H](CCC(=O)[*:2])N[*:1]; Desaminohistidyl = O=C(CCc1c[nH]cn1)*; AEEA = NCCOCCOCC(=O)O; Aib = CC(C)(N)C(=O)O
# How the values were obtained:
# human GLP-1 receptor = biological target: T1, human GLP-1 receptor (Homo sapiens, UniProt P43220); assay: Assay (I)(a): GLP-1 receptor potency, CRE luciferase reporter gene assay in BHK cells; format: cell-based; details: BHK cells expressing human GLP-1 receptor, read-out: EC50 GLP-1R
# T1 construct: expressed in transfected cells; host or cells: membranes of BHK cells, parent line BHKTS13, clone FCW467-12A
# Method in brief: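 BHK cells (clone FCW467-12A/KZ10-1), 5×10EE3/well, exposed 3 h at 37° C to compound at 1×10EE-13 to 1×10EE-6 M final in medium with 2% ovalbumin and 0.2% Pluronic F-68. Luciferase luminescence read; EC50 (pM) from four-parameter fit.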
# [1] = Assay (V): chemical stability assessment by RP-UPLC; format: physicochemical; details: 14 days at 37° C. in phosphate buffer (pH 7.3)
# Method in brief: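 Lyophilized peptide dissolved in 8 mM phosphate pH 8.6, adjusted to pH 7.3, final 333 μM, held 14 days at 5° C and 37° C. Purity is main-peak area % by RP-UPLC with UV detection at 215 nm. Degradation is the 5° C minus 37° C purity difference divided by the 5° C purity.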
# T1 sequence (P43220 24-463): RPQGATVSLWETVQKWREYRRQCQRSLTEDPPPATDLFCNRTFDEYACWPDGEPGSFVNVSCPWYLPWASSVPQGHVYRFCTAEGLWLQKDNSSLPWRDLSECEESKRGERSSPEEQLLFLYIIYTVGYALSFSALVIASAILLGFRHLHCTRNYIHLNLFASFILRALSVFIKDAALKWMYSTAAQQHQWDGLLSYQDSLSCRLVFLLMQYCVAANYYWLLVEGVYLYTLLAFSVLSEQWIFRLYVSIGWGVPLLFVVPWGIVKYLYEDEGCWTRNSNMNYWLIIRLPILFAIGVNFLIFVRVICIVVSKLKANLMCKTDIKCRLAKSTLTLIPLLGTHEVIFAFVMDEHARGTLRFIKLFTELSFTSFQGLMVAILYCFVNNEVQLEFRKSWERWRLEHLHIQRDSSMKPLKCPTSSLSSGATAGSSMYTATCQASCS
EC50 (human GLP-1 receptor) [pM],Chemical stability: Chemical degradation over 14 days at 37° C. [1] [%],Structure (SMILES)
7,0.2,"CC[C@H](C)[C@H](NC(=O)[C@H](Cc1ccccc1)NC(=O)[C@H](CCC(=O)O)NC(=O)[C@H](CCCNC(=N)N)NC(=O)[C@H](C)NC(=O)[C@H](C)NC(=O)[C@H](CCC(N)=O)NC(=O)[C@H](CCC(=O)O)NC(=O)[C@H](CCC(=O)O)NC(=O)[C@H](CC(C)C)NC(=O)[C@H](Cc1ccc(O)cc1)NC(=O)[C@H](CCCCN)NC(=O)[C@H](CO)NC(=O)[C@@H](NC(=O)[C@H](CC(=O)O)NC(=O)[C@H](CO)NC(=O)[C@@H](NC(=O)[C@H](Cc1ccccc1)NC(=O)[C@@H](NC(=O)CNC(=O)[C@H](Cc1c[nH]cn1)NC(=O)C(C)(C)NC(=O)CCc1c[nH]cn1)[C@@H](C)O)[C@@H](C)O)C(C)C)C(=O)N[C@@H](C)C(=O)N[C@@H](Cc1c[nH]c2ccccc12)C(=O)N[C@@H](CC(C)C)C(=O)N[C@@H](CC(C)C)C(=O)N[C@@H](CCCCNC(=O)CNC(=O)[C@H](CO)NC(=O)CC[C@H](NC(=O)CC[C@H](NC(=O)CCCCCCCCCCCCCCCCC(=O)O)C(=O)O)C(=O)O)C(=O)N[C@H](C(N)=O)[C@@H](C)O [Example 4, N^ε34-[2-[[(2S)-2-[[(4S)-4-carboxy-4-[[(4S)-4-carboxy-4-(17-carboxyheptadecanoylamino)butanoyl]amino]butanoyl]amino]-3-hydroxypropanoyl]amino]acetyl]-[Imp7,Aib8,His9,Lys18,Glu22,Arg26,Leu33,Thr35]-GLP-1-(7-35)-peptide amide] (Desaminohistidyl-[Aib]HGTFTSDVSKYLEEQAAREFIAWLLK([Gly-Ser-γGlu-γGlu-C18 diacid])T-NH2)"
8,2.0,"CC[C@H](C)[C@H](NC(=O)[C@H](Cc1ccccc1)NC(=O)[C@H](CCC(=O)O)NC(=O)[C@H](CCCNC(=N)N)NC(=O)[C@H](C)NC(=O)[C@H](C)NC(=O)[C@H](CCCNC(=N)N)NC(=O)CNC(=O)[C@H](CCC(=O)O)NC(=O)[C@H](CC(C)C)NC(=O)[C@H](Cc1ccc(O)cc1)NC(=O)[C@H](CCCCN)NC(=O)[C@H](CO)NC(=O)[C@@H](NC(=O)[C@H](CC(=O)O)NC(=O)[C@H](CO)NC(=O)[C@@H](NC(=O)[C@H](Cc1ccccc1)NC(=O)[C@@H](NC(=O)CNC(=O)[C@H](Cc1c[nH]cn1)NC(=O)[C@H](C)NC(=O)CCc1c[nH]cn1)[C@@H](C)O)[C@@H](C)O)C(C)C)C(=O)N[C@@H](C)C(=O)N[C@@H](Cc1c[nH]c2ccccc12)C(=O)N[C@@H](CC(C)C)C(=O)N[C@@H](CC(C)C)C(=O)N[C@@H](CCCCNC(=O)COCCOCCNC(=O)COCCOCCNC(=O)CC[C@H](NC(=O)CC[C@H](NC(=O)CC[C@H](NC(=O)CCCCCCCCCCCCCCCCC(=O)O)C(=O)O)C(=O)O)C(=O)O)C(=O)N[C@H](C(N)=O)[C@@H](C)O [Example 10, N^ε34-[2-[2-[2-[[2-[2-[2-[[(4S)-4-carboxy-4-[[(4S)-4-carboxy-4-[[(4S)-4-carboxy-4-(17-carboxyheptadecanoylamino)butanoyl]amino]butanoyl]amino]butanoyl]amino]ethoxy]ethoxy]acetyl]amino]ethoxy]ethoxy]acetyl]-[Imp7,His9,Lys18,Arg23,Arg26,Leu33,Thr35]-GLP-1-(7-35)-peptide amide] (Desaminohistidyl-AHGTFTSDVSKYLEGRAAREFIAWLLK([AEEA-AEEA-γGlu-γGlu-γGlu-C18 diacid])T-NH2)"
